# Patent US11505560B2, “Heterobifunctional compounds with improved specificity” (DANA-FARBER CANCER INSTITUTE, INC., priority 2017, dated 2022)
# How the values were obtained:
# [1] = molecular target: T1, IKZF1Δ-EGFP fusion protein (Homo sapiens, UniProt Q13422+Q96SW2, DEL197-239); test: IKZF1Δ-EGFP fusion protein degradation reporter assay (flow cytometry); assay type: cell-based; conditions: HEK293T cells
# T1 construct: expressed in transfected cells; HEK293T cells
# Protocol: IKZF1A, BRD2BD1, BRD2BD2, BRD3BD1, BRD3BD2, BRD4BD1, and BRD4BD2 were subcloned into mammalian pcDNA5/FRT Vector (Ampicillin and Hygromycin B resistant) modified to contain MCS-eGFP-P2A-mCherry. […] Following 2-3 passage cycle FACS (FACSAria II, BD) was used to enrich for cells expressing eGFP and mCherry.
# Signal from 5000 cells per well was acquired in singlicate or duplicate and the eGFP and mCherry florescence monitored. Data was analyzed using FlowJo (FlowJo, LCC). […] The eGFP protein abundance relative to mCherry was then quantified as a ten-fold amplified ratio for each individual cell using the formula: 10×eGFP/mCherry. The median of the ratio was then calculated per set, normalized to the median of the DMSO ratio, and is denoted as relative abundance. Standard deviation is calculated from four replicates (n=4) unless described otherwise.
# [2] = molecular target: T2, IKZF1Δ-CRBN complex formation (Homo sapiens, UniProt Q13422+Q96SW2, DEL197-239); test: CRBN-IKZF1Δ binding assay (TR-FRET); conditions: IKZF1Δ and DDB1ΔB-CRBN
# T2 construct: made in house; host or cells: Trichoplusia ni High-Five insect cells (baculovirus)
# Protocol: Compounds in CRBN mutants dimerization assay were dispensed as described above into 200 nM His6-DDB1-His6-CRBNmutants or 200 nM His6-DDB1ΔB-His6-CRBNWT, 100 nM BRD4BD1-BODIPY-SpyCatcher and 2 nM terbium-anti-HIS Ab (Invitrogen) in a buffer containing 50 mM Tris pH 7.5, 100 mM NaCl, 0.1% Pluronic F-68 solution (Sigma) and 2% DMSO (4% DMSO final). Before TR-FRET measurements were conducted, the reactions were incubated for 15 min at RT. […] The TR-FRET signal of each data point was extracted by calculating the 520/490 nm ratio. […] The peak height of TR-FRET dBET dose response data was calculated in GraphPad Prism 7 using Area Under Curve analysis for three independent replicates (n=3) and the mean peak height and standard deviation calculated.
# The standard deviation in IKZF1A TR-FRET compound titrations was calculated from three biological replicates (n=3) as an average of 5 technical replicates per well per experiment, or as an average of 5 technical replicates of single experiment for unlabelled protein titrations.
# [3] = system: IKZF1, IKZF3 and ZFP91 in MM.1s cells; test: Quantitative proteomics (TMT LC-MS3) in MM.1s cells; assay type: cell-based, human; conditions: 1 μM, five hours
# Protocol: A micro-BCA assay (Pierce) was used to determine the final protein concentration in the cell lysate. […] Proteins were precipitated using methanol/chloroform. In brief, four volumes of methanol were added to the cell lysate, followed by one volume of chloroform, and finally three volumes of water.
# T2 sequence (Q96SW2 whole entry, stated change not applied): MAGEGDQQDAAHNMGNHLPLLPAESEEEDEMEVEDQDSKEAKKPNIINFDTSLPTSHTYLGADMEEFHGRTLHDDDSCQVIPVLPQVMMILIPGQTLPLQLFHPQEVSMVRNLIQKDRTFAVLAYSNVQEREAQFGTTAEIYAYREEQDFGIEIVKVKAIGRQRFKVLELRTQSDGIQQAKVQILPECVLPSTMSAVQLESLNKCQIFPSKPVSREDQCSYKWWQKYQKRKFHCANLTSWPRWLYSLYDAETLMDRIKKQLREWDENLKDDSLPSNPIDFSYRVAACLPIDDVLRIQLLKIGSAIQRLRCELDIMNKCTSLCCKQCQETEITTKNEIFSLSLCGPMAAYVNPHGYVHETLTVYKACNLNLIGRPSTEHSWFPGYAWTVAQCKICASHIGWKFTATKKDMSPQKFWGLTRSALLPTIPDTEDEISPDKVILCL
# T2 sequence (Q13422 with tags, fused parts or gaps DEL197-239 limits assumed): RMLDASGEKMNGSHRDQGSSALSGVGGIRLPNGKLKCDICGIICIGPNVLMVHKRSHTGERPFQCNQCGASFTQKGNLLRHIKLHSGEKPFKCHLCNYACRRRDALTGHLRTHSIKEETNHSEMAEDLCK
# T1 sequence (Q13422 with tags, fused parts or gaps DEL197-239 limits assumed): as above
# T1 sequence (Q96SW2 whole entry, stated change not applied, the tested form may be a part): as the sequence (Q96SW2 whole entry, stated change not applied) above
# T1 sequence (Q16531 whole entry partner, the tested form may be a part): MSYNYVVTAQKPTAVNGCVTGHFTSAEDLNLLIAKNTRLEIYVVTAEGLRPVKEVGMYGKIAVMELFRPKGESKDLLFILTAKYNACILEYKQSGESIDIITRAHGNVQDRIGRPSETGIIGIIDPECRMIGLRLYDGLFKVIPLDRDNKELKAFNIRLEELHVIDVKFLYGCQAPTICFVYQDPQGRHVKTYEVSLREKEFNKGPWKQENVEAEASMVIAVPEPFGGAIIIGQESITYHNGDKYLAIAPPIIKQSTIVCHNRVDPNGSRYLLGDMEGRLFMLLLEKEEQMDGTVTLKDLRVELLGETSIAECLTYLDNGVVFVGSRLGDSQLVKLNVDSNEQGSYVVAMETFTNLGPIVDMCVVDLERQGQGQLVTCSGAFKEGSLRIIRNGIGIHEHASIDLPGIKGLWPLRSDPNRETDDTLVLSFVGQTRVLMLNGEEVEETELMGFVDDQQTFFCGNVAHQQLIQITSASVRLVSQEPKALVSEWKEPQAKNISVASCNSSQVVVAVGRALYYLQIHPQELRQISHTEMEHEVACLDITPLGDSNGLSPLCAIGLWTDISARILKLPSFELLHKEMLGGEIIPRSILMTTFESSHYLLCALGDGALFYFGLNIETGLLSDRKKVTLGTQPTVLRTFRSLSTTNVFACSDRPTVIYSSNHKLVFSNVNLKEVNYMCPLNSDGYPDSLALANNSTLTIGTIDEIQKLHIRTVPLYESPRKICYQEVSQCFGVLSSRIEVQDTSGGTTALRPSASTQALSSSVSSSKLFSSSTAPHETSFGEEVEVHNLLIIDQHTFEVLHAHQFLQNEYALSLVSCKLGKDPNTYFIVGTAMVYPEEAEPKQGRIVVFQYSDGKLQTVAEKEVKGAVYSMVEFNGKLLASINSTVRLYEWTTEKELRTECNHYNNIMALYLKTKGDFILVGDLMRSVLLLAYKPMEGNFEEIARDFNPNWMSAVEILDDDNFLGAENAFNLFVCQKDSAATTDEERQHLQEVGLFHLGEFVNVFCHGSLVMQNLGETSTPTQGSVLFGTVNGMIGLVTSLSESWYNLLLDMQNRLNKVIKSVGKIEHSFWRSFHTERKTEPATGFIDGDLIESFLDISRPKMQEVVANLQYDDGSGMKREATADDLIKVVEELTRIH
smiles,measurement,setting,value
"COC(=O)C[C@@H]1N=C(c2ccc(Cl)cc2)c2c(sc(C(=O)NCCCCCCCCNc3cccc4c3C(=O)N(C3CCC(=O)NC3=O)C4=O)c2C)-n2c(C)nnc21 (stereo partly drawn) [dBET70, reference compound]",cellular IKZF1 degradation (in words),[1],equipotent to lenalidomide
same,induction of IKZF1-CRBN complex formation / IKZF1 binding (in words),[2],pronounced complex formation
same,"co-degradation of CRBN-lenalidomide neo-substrates IKZF1, IKZF3 and ZFP91",[3],"pronounced co-degradation of CRBN-lenalidomide neo-substrates IKZF1, IKZF3 and ZFP91"
